Literature values in patent publication US20080299189A1, “CONTROLLED RELEASE DOPAMINE AGONIST COMPOSITIONS” (DRUGTECH CORPORATION, priority 2007, published 2008).

Columns and labels:
[1] = compared to placebo

relative risk of hallucination [1]: 5.2
relative risk of hypotension [1]: 1.65
relative risk of somnolence [1]: 2.01
half-life (in vivo): 8.5 h
Cmax (printed as a time): 1 to 3 h
SMILES: CCCN[C@H]1CCc2nc(N)sc2C1 [pramipexole, (S)-2-amino-4,5,6,7-tetrahydro-6-(propylamino)benzothiazole]
